Source: BindingDB's records for doi:10.1021/acs.jnatprod.0c00921 (Bc Cancer, 2021)

Assay: Inhibition of R1881-stimulated AR transcription driven human LNCaP cells proliferation preincubated for 1 hr followed by R1881 addition and measured after 4 days by Alamar blue assay

## CCC(=O)N[C@H](C[C@H](C)C(Cl)(Cl)Cl)C(=O)N1C(=O)C=C(OC)[C@@H]1C[C@H](C)C(Cl)Cl
  IC50: 14 µM
